Reference: ChEMBL document CHEMBL1144144, “Methylsulfomycin I, a new cyclic peptide antibiotic from a Streptomyces sp. HIL Y-9420704” (1999)
Values after ≈ are worked out from the molar mass of the structure shown.

What was measured:
[1] = tested on: Staphylococcus epidermidis; assay: Antimicrobial activity against teicoplanin-sensitive Staphylococcus epidermidis 825 relative to vancomycin; assay type: functional
Enterococcus equinus [2] = assay: Antimicrobial activity against vancomycin and teicoplanin-resistant Enterococcus equinus relative to vancomycin
[3] = tested on: Staphylococcus haemolyticus; assay: Antimicrobial activity against teicoplanin-resistant Staphylococcus haemolyticus 712 relative to vancomycin; assay type: functional
Enterococcus faecium [4] = assay: Antimicrobial activity against vancomycin and teicoplanin-resistant Enterococcus faecium R-1 relative to vancomycin; assay type: functional
Staphylococcus aureus = assay: Antimicrobial activity against methicillin-resistant Staphylococcus aureus; assay type: functional
Enterococcus = assay: Antimicrobial activity against Enterococcus species; assay type: functional
Enterococcus faecium [5] = assay: Antimicrobial activity against vancomycin and teicoplanin-resistant Enterococcus faecium R-2 relative to vancomycin; assay type: functional
[6] = tested on: Staphylococcus epidermidis; assay: Antimicrobial activity against teicoplanin-resistant Staphylococcus epidermidis 823 relative to vancomycin; assay type: functional
Enterococcus faecium [7] = assay: Antimicrobial activity against vancomycin and teicoplanin-resistant Enterococcus faecium P-1 relative to vancomycin; assay type: functional
[8] = tested on: Staphylococcus haemolyticus; assay: Antimicrobial activity against teicoplanin-sensitive Staphylococcus haemolyticus 712 relative to vancomycin; assay type: functional
Enterococcus faecium [9] = assay: Antimicrobial activity against vancomycin and teicoplanin-resistant Enterococcus faecium R-2; assay type: functional
Enterococcus faecium [10] = assay: Antimicrobial activity against vancomycin and teicoplanin-resistant Enterococcus faecium R-1; assay type: functional
[11] = tested on: Staphylococcus epidermidis; assay: Antimicrobial activity against teicoplanin-sensitive Staphylococcus epidermidis 825; assay type: functional
[12] = tested on: Staphylococcus haemolyticus; assay: Antimicrobial activity against teicoplanin-sensitive Staphylococcus haemolyticus 712; assay type: functional
Enterococcus faecium [13] = assay: Antimicrobial activity against vancomycin and teicoplanin-resistant Enterococcus faecium P-1; assay type: functional
Enterococcus equinus [14] = assay: Antimicrobial activity against vancomycin and teicoplanin-resistant Enterococcus equinus

In the case of C=C(NC(=O)C(=C)NC(=O)C(=C)NC(=O)c1ccc2c(n1)-c1nc(oc1C)C(=C)NC(=O)C(=C)NC(=O)c1nc(oc1C)/C(=C/C)NC(=O)c1csc(n1)[C@H](OC)NC(=O)c1nc(oc1C)/C(=C\C(C)O)NC(=O)[C@H]([C@@H](C)O)NC(=O)c1csc-2n1)C(N)=O (stereo partly specified) [METHYLSULFOMYCIN I], the “fold change (FC)” value [1] is reported as 6.2, the fold change (FC) (Enterococcus equinus [2]) is reported as over 800 and the “fold change (FC)” value [3] is reported as 12.4. It also gave a fold change (FC) (Enterococcus faecium [4]) of over 800, an MIC (Staphylococcus aureus) of 0.06 µg/mL (≈ 0.0476 µM) and an MIC (Enterococcus) of 0.06 µg/mL (≈ 0.0476 µM). The fold change (FC) (Enterococcus faecium [5]) was over 800, the “fold change (FC)” value [6] was 12.4 and the fold change (FC) (Enterococcus faecium [7]) was over 800. The “fold change (FC)” value [8] was 6.2.
With CN[C@H](CC(C)C)C(=O)N[C@H]1C(=O)N[C@@H](CC(N)=O)C(=O)N[C@H]2C(=O)N[C@H]3C(=O)N[C@H](C(=O)N[C@H](C(=O)O)c4cc(O)cc(O)c4-c4cc3ccc4O)[C@H](O)c3ccc(c(Cl)c3)Oc3cc2cc(c3O[C@@H]2O[C@H](CO)[C@@H](O)[C@H](O)[C@H]2O[C@H]2C[C@](C)(N)[C@H](O)[C@H](C)O2)Oc2ccc(cc2Cl)[C@H]1O [VANCOMYCIN] the MIC (Enterococcus faecium [9]) was over 100 µg/mL, the MIC (Enterococcus faecium [10]) was over 100 µg/mL and the MIC [11] was 0.78 µg/mL (≈ 0.538 µM). For the same molecule, the MIC [12] was 0.78 µg/mL (≈ 0.538 µM), the MIC (Enterococcus faecium [13]) was over 100 µg/mL and the MIC (Enterococcus equinus [14]) was over 100 µg/mL.
